Measured values reported in patent EP0507854B1 (priority 1989, dated 1991).

How the values were obtained:
[1] = system: fowl plague viral NA; conditions: result in words; cited from earlier work
[2] = system: A. ureafaciens NA; conditions: after 22 hrs; cited from earlier work
[3] = system: C. perfrinqens NA; conditions: after 22 hrs; cited from earlier work
[4] = molecular target: V cholera NA (Vibrio cholerae serotype O1, UniProt P0C6E9); conditions: after 22 hrs; cited from earlier work
[5] = molecular target: Influenza A (H1N1) neuraminidase (Influenza A virus, UniProt P03468); assay: biochemical
Chain of Influenza A (H1N1) neuraminidase (P03468 whole entry, looked up): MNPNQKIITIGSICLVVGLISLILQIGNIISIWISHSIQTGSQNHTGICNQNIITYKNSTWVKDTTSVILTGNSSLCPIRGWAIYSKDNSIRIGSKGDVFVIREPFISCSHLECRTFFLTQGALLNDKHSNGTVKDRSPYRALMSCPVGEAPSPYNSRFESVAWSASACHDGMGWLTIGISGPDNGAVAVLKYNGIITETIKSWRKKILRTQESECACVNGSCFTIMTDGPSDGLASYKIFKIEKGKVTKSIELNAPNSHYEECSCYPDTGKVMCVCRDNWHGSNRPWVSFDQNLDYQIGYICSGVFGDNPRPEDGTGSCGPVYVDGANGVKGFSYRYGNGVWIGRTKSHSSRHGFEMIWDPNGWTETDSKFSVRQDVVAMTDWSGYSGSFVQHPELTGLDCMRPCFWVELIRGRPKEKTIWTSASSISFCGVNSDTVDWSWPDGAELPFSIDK

[6] = molecular target: Influenza A (H3N2) neuraminidase (Influenza A virus, UniProt P03482); assay: biochemical
Chain of Influenza A (H3N2) neuraminidase (P03482 whole entry, looked up): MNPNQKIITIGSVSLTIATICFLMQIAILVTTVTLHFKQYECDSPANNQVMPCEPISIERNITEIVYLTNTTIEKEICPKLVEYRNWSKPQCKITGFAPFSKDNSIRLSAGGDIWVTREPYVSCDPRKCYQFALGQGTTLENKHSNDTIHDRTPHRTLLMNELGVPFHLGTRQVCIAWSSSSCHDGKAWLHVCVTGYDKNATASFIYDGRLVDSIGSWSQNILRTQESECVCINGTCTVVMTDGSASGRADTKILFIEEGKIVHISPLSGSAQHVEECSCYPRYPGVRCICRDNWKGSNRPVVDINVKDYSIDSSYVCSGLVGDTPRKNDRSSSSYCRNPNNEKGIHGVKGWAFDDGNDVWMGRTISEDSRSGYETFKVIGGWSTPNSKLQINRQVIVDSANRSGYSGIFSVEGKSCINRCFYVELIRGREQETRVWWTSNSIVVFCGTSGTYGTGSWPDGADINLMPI

[7] = molecular target: Influenza B neuraminidase (Influenza B virus, UniProt P03474); assay: biochemical
Chain of Influenza B neuraminidase (P03474 whole entry, looked up): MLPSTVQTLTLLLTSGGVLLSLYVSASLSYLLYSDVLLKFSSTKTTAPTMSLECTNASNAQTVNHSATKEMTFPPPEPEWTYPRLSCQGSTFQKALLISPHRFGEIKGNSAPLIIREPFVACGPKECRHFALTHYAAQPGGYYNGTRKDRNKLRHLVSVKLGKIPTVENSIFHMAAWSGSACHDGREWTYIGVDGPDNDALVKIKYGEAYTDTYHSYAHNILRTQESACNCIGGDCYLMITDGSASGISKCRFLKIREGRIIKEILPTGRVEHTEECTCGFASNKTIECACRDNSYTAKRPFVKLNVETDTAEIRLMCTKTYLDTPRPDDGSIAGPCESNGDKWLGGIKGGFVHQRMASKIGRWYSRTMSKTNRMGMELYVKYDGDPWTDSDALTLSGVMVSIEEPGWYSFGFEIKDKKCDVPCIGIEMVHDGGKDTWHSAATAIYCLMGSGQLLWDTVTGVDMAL

Chain of V cholera NA (P0C6E9 25-781 limits assumed): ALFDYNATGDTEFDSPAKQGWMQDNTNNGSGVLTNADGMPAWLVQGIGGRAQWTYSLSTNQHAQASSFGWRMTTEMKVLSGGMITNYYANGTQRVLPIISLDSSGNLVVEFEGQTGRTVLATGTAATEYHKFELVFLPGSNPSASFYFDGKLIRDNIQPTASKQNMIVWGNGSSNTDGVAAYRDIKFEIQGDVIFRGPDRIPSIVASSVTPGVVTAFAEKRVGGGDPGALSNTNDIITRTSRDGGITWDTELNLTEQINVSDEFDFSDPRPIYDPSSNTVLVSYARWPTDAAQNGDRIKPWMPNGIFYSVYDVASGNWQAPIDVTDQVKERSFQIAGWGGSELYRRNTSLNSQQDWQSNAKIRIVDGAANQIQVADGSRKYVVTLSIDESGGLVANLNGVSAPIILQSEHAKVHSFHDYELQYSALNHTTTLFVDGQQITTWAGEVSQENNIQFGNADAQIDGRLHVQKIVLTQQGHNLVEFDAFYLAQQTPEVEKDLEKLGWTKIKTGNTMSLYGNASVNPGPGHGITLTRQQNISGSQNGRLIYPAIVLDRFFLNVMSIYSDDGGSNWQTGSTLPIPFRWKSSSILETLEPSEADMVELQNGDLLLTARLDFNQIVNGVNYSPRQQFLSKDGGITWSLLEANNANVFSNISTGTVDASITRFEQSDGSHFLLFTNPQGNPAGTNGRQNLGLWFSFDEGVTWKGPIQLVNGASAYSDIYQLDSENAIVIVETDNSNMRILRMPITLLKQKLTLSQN

## CO[C@H]1CC(O)(C(=O)O)O[C@@H]([C@H](O)[C@H](O)CO)[C@@H]1NC(C)=O (stereo partly drawn) [4-methoxy Neu5Ac, 4-methoxy-N-acetylneuraminic acid]
[1]
  substrate quality: excellent substrate

## CC(=O)NC1C(O)CC(OCc2ccccc2)(C(=O)O)OC1C(O)C(O)CO [benzyl-alpha-glycosides of N-acetyl-4-epi-D-neuraminic acid]
[2]
  substrate cleaved: 50%
[3]
  substrate cleaved: 100%
[4]
  substrate cleaved: 11%

## CC(=O)N[C@@H]1CCC(O)(C(=O)O)O[C@H]1[C@H](O)[C@H](O)CO (stereo partly drawn) [4-deoxy Neu5Ac, 4-deoxy-N-acetylneuraminic acid]
[5]
  Ki: 998 µM
[6]
  Ki: 2200 µM
[7]
  Ki: 1050 µM

## CC(=O)N[C@H]1[C@H]([C@H](O)[C@H](O)CO)OC(O)(C(=O)O)C[C@@H]1O (stereo partly drawn) [Neu5Ac, N-acetylneuraminic acid]
[5]
  Ki: 626 µM

## COC1(C(=O)O)CCC(NC(C)=O)C(C(O)C(O)CO)O1 (stereo not drawn) [methyl-alpha-glycoside of 4-deoxy Neu5Ac]
[1]
  substrate quality: good substrate
